Where a SMILES comes first, the peptide text is derived from it. [ ]: non-standard residue; d: D form. ξ: configuration not given here. ξBip(2'-Et-4'-OMe) = CCc1cc(OC)ccc1-c1ccc(CC(N)C(=O)O)cc1; Arg(NO2) = N=C(NCCC[C@H](N)C(=O)O)N[N+](=O)[O-]; ξαMePhe(2,6-F2) = CC(N)(Cc1c(F)cccc1F)C(=O)O; ξαMePhe(2-F) = CC(N)(Cc1ccccc1F)C(=O)O; hhPhe = N[C@@H](CCCc1ccccc1)C(=O)O; hArg = N=C(N)NCCCC[C@H](N)C(=O)O; Cit = NC(=O)NCCC[C@H](N)C(=O)O; ξαMeF = CC(N)(Cc1ccccc1)C(=O)O; ξαMeM = CSCCC(C)(N)C(=O)O; Nle = CCCC[C@H](N)C(=O)O; Orn = NCCC[C@H](N)C(=O)O; ξαMeP = CC1(C(=O)O)CCCN1; Ac5c = NC1(C(=O)O)CCCC1; Ac3c = NC1(C(=O)O)CC1; Aib = CC(C)(N)C(=O)O

These results are taken from patent publication US8383581B2, “Short-chain peptides as parathyroid hormone (PTH) receptor agonist” (Cadila Healthcare Limited, priority 2009, dated 2013).

Type in all cases: in vitro ADME
Data set [1] is described as follows: Stability of peptides in simulated gastric fluid (pH 1.5; HCl, NaCl and Pepsin). The following applies: pH 1.5; for % degradation of peptides in 24 h when incubated with simulated gastric fluid: 2 μM. The method, then: (§1) b) Stability of Peptides in Human Plasma, Simulated Gastric Fluid, Intestinal Fluid and Liver Microsomes (Ex-Vivo): Different short-chain peptides (final concentration 2 μM) were incubated with either pooled human plasma (7.5 μL) or simulated gastric fluid (pH 1.5; composition HCl, NaCl and Pepsin) or simulated intestinal fluid (pH 7.5) or human liver microsomes, for 0, 2, 4, 6, 12 and 24 h (37° C.; 50 mM triethanolamine-HCl buffer; pH 7.8). Concentrations of human plasma/simulated gastric fluid/simulated intestinal fluid/human liver microsomes were selected in preliminary experiments to provide degradation of approximately 50% of PTH(1-34) within 1 h, therefore allowing time-dependent degradation to be viewed over 24 h. Reactions were terminated by the addition of TFA/H2O ([…], 10% (v/v)). The reaction products were then applied to a Vydac C18 analytical column (4.6×250-mm) and the major degradation fragment separated from intact short-chain peptides. The column was equilibrated with TFA/H20, at a flow rate of 1 mL/min. Using 0.1% (v/v) TFA in 70% acetonitrile/H2O, the concentration of acetonitrile in the eluting solvent was raised from 0% to 28% over 10 min and from 28% to 42% over 30 min. The absorbance was monitored at 206 nm using UV detector and peaks were collected manually prior to ESI-MS analysis. Area under the curve was measured for test peptides and their metabolites and percentage degradation were calculated at each time point over a period of 24 h. Stability study results of selected peptides, in human plasma, simulated gastric fluid, intestinal fluid and liver microsomes (in vitro) are listed in Table 4.

A short description of data set [2]: Stability of peptides in human plasma. The conditions noted are these: human, plasma; for metabolised at 24 h, 2 μM: pH 7.8. The method, then:
as §1

Data set [3] is described as follows: Stability of peptides in simulated intestinal fluid (pH 7.5). The conditions noted are these: pH 7.5; for % degradation of peptides in 24 h when incubated with simulated intestinal fluid: 2 μM. The method, then:
as §1

Data set [4] can be described thus: Stability of peptides in human liver microsomes. The following applies: human, microsomes; for % degradation of peptides in 24 h when incubated with liver microsomes: 2 μM, pH 7.8. The method, then: as §1
For orientation: Liver microsomes are vesicles of endoplasmic reticulum, rich in cytochrome P450 enzymes.

As to `CCCC[C@H](NC(=O)C(C)(Cc1c(F)cccc1F)NC(=O)[C@H](CCC(N)=O)NC(=O)[C@@H](NC(=O)[C@H](CCC(=O)O)NC(=O)C1(NC(=O)[C@@H](NC(=O)C2(N)CCCC2)C(C)C)CCCC1)[C@@H](C)CC)C(=O)N[C@@H](Cc1c[nH]cn1)C(=O)N[C@@H](CCC(N)=O)C(=O)N[C@@H](CCCCNC(=N)N)C(=O)N1CCCC1(C)C(=O)N[C@@H](CCCCN)C(=O)NC(C)(Cc1ccccc1)C(N)=O` (stereo partly shown) [Seq. ID. 46] (H-[Ac5c]V[Ac5c]EIQ[ξαMePhe(2,6-F2)][Nle]HQ[hArg][ξαMeP]K[ξαMeF]-NH2), the “% degradation of peptides in 24 h when incubated with simulated gastric fluid” value (shortened to “% degradation … with simulated gastric fluid”) in data set [1] is recorded as 00%. The half-life (in general, the time needed for the level to fall by half in the phase considered) in data set [1] (simulated gi fluid) is > 24 h. In addition, in data set [2], the half-life is > 24 h and the metabolised at 24 h, 2 μM stood at 0%. The half-life in data set [3] (simulated gi fluid) was > 24 h. Moreover, in data set [3], the “% degradation of peptides in 24 h when incubated with simulated intestinal fluid” value (from here on “% degradation … with simulated intestinal fluid”) was 00%. In data set [4], the “half-life (t1/2) in liver microsomes” value is given as “(5) h” and the “% degradation of peptides in 24 h when incubated with liver microsomes” value (“% degradation … with liver microsomes” below) is recorded as 31%.
With `CCCC[C@H](NC(=O)C(C)(Cc1c(F)cccc1F)NC(=O)[C@H](CCC(N)=O)NC(=O)[C@@H](NC(=O)[C@H](CCC(=O)O)NC(=O)C1(NC(=O)[C@@H](NC(=O)C2(N)CCCC2)C(C)C)CC1)[C@@H](C)CC)C(=O)N[C@@H](Cc1c[nH]cn1)C(=O)N[C@@H](CCC(N)=O)C(=O)N[C@@H](CCCCNC(=N)N)C(=O)N[C@@H](C)C(=O)N[C@@H](CCCNC(=N)N[N+](=O)[O-])C(=O)NC(C)(Cc1c(F)cccc1F)C(=O)N[C@@H](CCCc1ccccc1)C(N)=O` (stereo partly shown) [Seq. ID. 710] (H-[Ac5c]V[Ac3c]EIQ[ξαMePhe(2,6-F2)][Nle]HQ[hArg]A[Arg(NO2)][ξαMePhe(2,6-F2)][hhPhe]-NH2), the “% degradation … with simulated gastric fluid” value in data set [1] was 00%. For the same compound, the half-life in data set [1] (simulated gi fluid) is > 24 h. Also, in data set [2], the half-life is > 24 h and the metabolised at 24 h, 2 μM was found to be 0%. For the same compound, the half-life in data set [3] (simulated gi fluid) was > 24 h. Moreover, in data set [3], the “% degradation … with simulated intestinal fluid” value is 00%. Moreover, in data set [4], the “half-life (t1/2) in liver microsomes” value was “(5) h” and the “% degradation … with liver microsomes” value is reported as 35%.
Take `CC[C@H](C)[C@H](NC(=O)[C@H](CCC(=O)O)NC(=O)C(C)(C)NC(=O)[C@@H](NC(=O)C(C)(C)N)C(C)C)C(=O)N[C@@H](CCC(N)=O)C(=O)N[C@@H](CC(C)C)C(=O)NC(C)(CCSC)C(=O)N[C@@H](Cc1c[nH]cn1)C(=O)N[C@@H](CCC(N)=O)C(=O)N[C@@H](CCCCNC(=N)N)C(=O)N[C@@H](C)C(=O)N[C@@H](CCCCNC(=N)N)C(=O)NC(C)(Cc1ccccc1F)C(=O)N[C@@H](CCCc1ccccc1)C(N)=O` (stereo partly shown) [Seq. ID. 930] (H-[Aib]V[Aib]EIQL[ξαMeM]HQ[hArg]A[hArg][ξαMePhe(2-F)][hhPhe]-NH2): the “% degradation … with simulated gastric fluid” value in data set [1] was 00%. Besides, the half-life in data set [1] (simulated gi fluid) was > 24 h. In data set [2], the half-life is > 24 h and the metabolised at 24 h, 2 μM came to 0%. Further, the half-life in data set [3] (simulated gi fluid) is > 24 h. Further, the “% degradation … with simulated intestinal fluid” value in data set [3] is 00%. Further, in data set [4], the “half-life (t1/2) in liver microsomes” value is listed as “(5) h” and the “% degradation … with liver microsomes” value was 32%.
As for `CCCC[C@H](NC(=O)[C@H](CC(C)C)NC(=O)[C@H](CCC(N)=O)NC(=O)[C@@H](NC(=O)[C@H](CCC(=O)O)NC(=O)C(C)(C)NC(=O)[C@@H](NC(=O)C1(N)CCCC1)C(C)C)[C@@H](C)CC)C(=O)N[C@@H](Cc1c[nH]cn1)C(=O)N[C@@H](CCC(N)=O)C(=O)NC(C)(Cc1c(F)cccc1F)C(=O)NC(C)(C)C(=O)N[C@@H](CCCNC(N)=O)C(=O)NC(Cc1ccc(-c2ccc(OC)cc2CC)cc1)C(=O)N[C@@H](CCCc1ccccc1)C(N)=O` (stereo partly shown) [Seq. ID. 805] (H-[Ac5c]V[Aib]EIQL[Nle]HQ[ξαMePhe(2,6-F2)][Aib][Cit][ξBip(2'-Et-4'-OMe)][hhPhe]-NH2), the “% degradation … with simulated gastric fluid” value in data set [1] was 49%. Also, the half-life is 4 h in data set [1] (simulated gi fluid), > 24 h in data set [2], > 24 h in data set [3] (simulated gi fluid) and 2 h in data set [4]. The metabolised at 24 h, 2 μM in data set [2] was 0%. In addition, the “% degradation … with simulated intestinal fluid” value in data set [3] is given as 00%. The “% degradation … with liver microsomes” value in data set [4] was found to be 82%.
Turning to `CCCC[C@H](NC(=O)C(C)(Cc1ccccc1F)NC(=O)[C@H](CCC(N)=O)NC(=O)[C@@H](NC(=O)[C@H](CCC(=O)O)NC(=O)C(C)(C)NC(=O)[C@@H](NC(=O)C(C)(C)N)C(C)C)[C@@H](C)CC)C(=O)N[C@@H](Cc1c[nH]cn1)C(=O)N[C@@H](CCC(N)=O)C(=O)N[C@@H](CCCNC(N)=O)C(=O)N[C@@H](C)C(=O)N[C@@H](CCCNC(N)=O)C(=O)NC(C)(Cc1ccccc1F)C(N)=O` (stereo partly shown) [Seq. ID. 345] (H-[Aib]V[Aib]EIQ[ξαMePhe(2-F)][Nle]HQ[Cit]A[Cit][ξαMePhe(2-F)]-NH2), the “% degradation … with simulated gastric fluid” value in data set [1] is listed as 100%. In data set [1] (simulated gi fluid), the half-life is 0.5 h. Besides, in data set [2], the “half-life (t1/2) in human plasma” value is on record as “(9) h” and the metabolised at 24 h, 2 μM was determined as 70%. In data set [3] (simulated gi fluid), this compound returned a half-life of 0.5 h. Further, the “% degradation … with simulated intestinal fluid” value in data set [3] is given as 100%. Moreover, in data set [4], the half-life stood at 0.5 h and the “% degradation … with liver microsomes” value came out at 100%.
In the case of `CCCC[C@H](NC(=O)C(C)(Cc1ccccc1F)NC(=O)[C@H](CCC(N)=O)NC(=O)[C@@H](NC(=O)[C@H](CCC(=O)O)NC(=O)C(C)(C)NC(=O)[C@@H](NC(=O)C1(N)CCCC1)C(C)C)[C@@H](C)CC)C(=O)N[C@@H](Cc1c[nH]cn1)C(=O)N[C@@H](CCC(N)=O)C(=O)N[C@@H](CCCNC(N)=O)C(=O)NC(C)(C)C(=O)NC(C)(Cc1c(F)cccc1F)C(=O)NC(C)(Cc1ccccc1F)C(N)=O` (stereo partly shown) [Seq. ID. 380] (H-[Ac5c]V[Aib]EIQ[ξαMePhe(2-F)][Nle]HQ[Cit][Aib][ξαMePhe(2,6-F2)][ξαMePhe(2-F)]-NH2), the “% degradation … with simulated gastric fluid” value in data set [1] is reported as 50%. In addition, the half-life in data set [1] (simulated gi fluid) was 4 h; in data set [2], > 24 h; in data set [3] (simulated gi fluid), > 24 h; in data set [4], 2 h. This compound came in with a metabolised at 24 h, 2 μM in data set [2] of 0%. The “% degradation … with simulated intestinal fluid” value in data set [3] is 00%. The “% degradation … with liver microsomes” value in data set [4] was determined as 86%.
Take `CCCC[C@H](NC(=O)C(C)(Cc1c(F)cccc1F)NC(=O)[C@H](CCC(N)=O)NC(=O)[C@@H](NC(=O)[C@H](CCC(=O)O)NC(=O)C(C)(C)NC(=O)[C@@H](NC(=O)C(C)(C)N)C(C)C)[C@@H](C)CC)C(=O)N[C@@H](Cc1c[nH]cn1)C(=O)N[C@@H](CCC(N)=O)C(=O)N[C@@H](CCCN)C(=O)NC(C)(C)C(=O)NC(C)(Cc1c(F)cccc1F)C(=O)NC(Cc1ccc(-c2ccc(OC)cc2CC)cc1)C(=O)N[C@@H](CCCc1ccccc1)C(N)=O` (stereo partly shown) [Seq. ID. 840] (H-[Aib]V[Aib]EIQ[ξαMePhe(2,6-F2)][Nle]HQ[Orn][Aib][ξαMePhe(2,6-F2)][ξBip(2'-Et-4'-OMe)][hhPhe]-NH2): in data set [1], the “% degradation … with simulated gastric fluid” value is 00%. The half-life in data set [1] (simulated gi fluid) is > 24 h. Besides, in data set [2], the half-life is > 24 h and the metabolised at 24 h, 2 μM came out at 0%. Besides, the half-life in data set [3] (simulated gi fluid) was > 24 h. Further, the “% degradation … with simulated intestinal fluid” value in data set [3] is 00%. In data set [4], the “half-life (t1/2) in liver microsomes” value is “(5) h” and the “% degradation … with liver microsomes” value turned out to be 33%.
`CCc1cc(OC)ccc1-c1ccc(CC(NC(=O)[C@H](CCCCN)NC(=O)[C@H](C)NC(=O)[C@H](CCCCNC(=N)N)NC(=O)[C@H](CCC(N)=O)NC(=O)[C@H](Cc2c[nH]cn2)NC(=O)[C@H](CCSC)NC(=O)[C@H](CC(C)C)NC(=O)[C@H](CCC(N)=O)NC(=O)[C@@H](NC(=O)[C@H](CCC(=O)O)NC(=O)C(C)(C)NC(=O)[C@@H](NC(=O)C2(N)CCCC2)C(C)C)[C@@H](C)CC)C(N)=O)cc1` (stereo partly shown) [Seq. ID. 650] (H-[Ac5c]V[Aib]EIQLMHQ[hArg]AK[ξBip(2'-Et-4'-OMe)]-NH2): in data set [1], the “% degradation … with simulated gastric fluid” value is given as 15%. Further, in data set [1] (simulated gi fluid), the “half-life (t1/2) in simulated gastric fluid” value was “(8) h”. Further, in data set [2], the half-life was determined as 8 h and the metabolised at 24 h, 2 μM was found to be 70%. Moreover, the “half-life (t1/2) in simulated intestinal fluid” value in data set [3] (simulated gi fluid) is “(6) h”. In data set [3], the “% degradation … with simulated intestinal fluid” value is on record as 41%. Moreover, in data set [4], the half-life is 1 h and the “% degradation … with liver microsomes” value was found to be 77%.
